Laboratory results as given in patent US10913721B2, “Crystalline form of aripiprazole” (Noratech Pharmaceuticals, Inc., priority 2016, dated 2021).
“Also recorded” adds a separate entry of the source.

How the values were obtained:
[1] = Comparison test for the dissolution rate of crystalline forms of aripiprazole; format: physicochemical; conditions: 0.25% sodium dodecyl sulfate solution (900 mL), slurry method, 50 rpm, 37° C.±0.5° C.; 15-360 min; compared with hydrate A and the conventional hydrate (FIG. 7)
Protocol: Sample preparation: Powders of crystalline form N, hydrate A and the conventional hydrate of aripiprazole are respectively sieved through a 100-mesh sieve, and the appropriate amount of sieved material (equivalent to 50 mg of aripiprazole) is taken and measured to determine the dissolution rate of each sample.
Dissolution conditions: 0.25% sodium dodecyl sulfate solution (900 mL): slurry method: 50 rpm; 37° C.±0.5° C.
Sample detection: Samples of 3 ml are respectively taken at 15, 30, 60, 90, 120, 240, and 360 min, and immediately littered through a 0.45 μm microporous membrane, 2 mL of the initial filtrate is discarded, and the drug concentration in the subsequent filtrate is measured.

[2] = as stated in WO 03/026659; cited from earlier work

SMILES | dissolution rate (release rate) [1] | hygroscopicity [2]
O=C1CCc2ccc(OCCCCN3CCN(c4cccc(Cl)c4Cl)CC3)cc2N1 [Crystalline form N, 7-{4-[4-(2,3-dichlorophenyl)-1-piperazinyl]-butoxy}-3,4-dihydroquinolone] | slower release rate; also recorded: slower dissolution rate | –
O=C1CCc2ccc(OCCCCN3CCN(c4cccc(Cl)c4Cl)CC3)cc2N1 [type-I crystals] | – | significant hygroscopicity
